# Laboratory results taken from patent publication US20240083861A1, “HSD17B13 INHIBITORS AND USES THEREOF” (FL2022-001, Inc., priority 2020, published 2024).
# Target: T1, Recombinant human HSD17B13 enzyme (Homo sapiens, UniProt Q7Z5P4)
# T1 sequence (Q7Z5P4 20-300): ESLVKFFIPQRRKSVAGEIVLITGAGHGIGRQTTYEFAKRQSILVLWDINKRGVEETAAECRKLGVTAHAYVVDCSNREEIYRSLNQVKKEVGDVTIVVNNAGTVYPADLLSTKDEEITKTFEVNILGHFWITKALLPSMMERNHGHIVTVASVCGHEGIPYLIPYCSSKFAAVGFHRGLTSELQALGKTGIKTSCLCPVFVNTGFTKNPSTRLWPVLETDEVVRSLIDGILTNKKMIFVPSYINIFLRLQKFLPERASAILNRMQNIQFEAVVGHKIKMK
# Test: HSD17b13 NAD(P)H-Glo biochemical assay
# Details: 50 uM estradiol, 1 mM NAD+, NAD(P)H-Glo luminescence; read-out: HSD17β13 IC50
# Summary of the method: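 Luminescent NAD(P)H-Glo read-out, taken after 1 hour at RT, measured cofactor reduction. Substrate and cofactor were estradiol at 50 uM and NAD+ at 1 mM final, reacted with the recombinant human enzyme for 3 hours at 37° C in 20 mM Tris pH7.4, 0.002% Tween-20, 0.02% BSA. Compound was pre-incubated with enzyme for 20 minutes at RT.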
row,IC50,Structure (SMILES)
1,< 100 nM,"Cn1nc(-c2cc(C(F)(F)F)c(F)c(O)c2F)c2cnc(N(C3CCOCC3)C3CC3)cc21 [Compound 9.129, 3-(6-(Cyclopropyl(tetrahydro-2H-pyran-4-yl)amino)-1-methyl-1H-pyrazolo[4,3-c]pyridin-3-yl)-2,6-difluoro-5-(trifluoromethyl)phenol]"
2,100 to 1000 nM,"Cc1c(N(C)C2CCOCC2)ncc2c(-c3cc(C(F)(F)F)c(F)c(O)c3F)nn(C)c12 [Compound 9.130, 3-(1,7-Dimethyl-6-(methyl(tetrahydro-2H-pyran-4-yl)amino)-1H-pyrazolo[4,3-c]pyridin-3-yl)-2,6-difluoro-5-(trifluoromethyl)phenol]"
3,< 100 nM,"Cn1nc(-c2cc(C(F)(F)F)c(F)c(O)c2F)c2cnc(N(Cc3cccnc3)C3CCOCC3)cc21 [Compound 9.131, 2,6-Difluoro-3-(1-methyl-6-((pyridin-3-ylmethyl)(tetrahydro-2H-pyran-4-yl)amino)-1H-pyrazolo[4,3-c]pyridin-3-yl)-5-(trifluoromethyl)phenol]"
4,< 100 nM,"Cn1nc(-c2cc(C(F)(F)F)c(F)c(O)c2F)c2cnc(N3CCOC4(CCCC4)C3)cc21 [Compound 9.132, 2,6-Difluoro-3-(1-methyl-6-(6-oxa-9-azaspiro[4.5]decan-9-yl)-1H-pyrazolo[4,3-c]pyridin-3-yl)-5-(trifluoromethyl)phenol]"
5,< 100 nM,"Cn1nc(-c2cc(C(F)(F)F)c(F)c(O)c2F)c2cnc(N3CCOC(C4CCOCC4)C3)cc21 (centres unmarked) [Compound 9.133, 2,6-Difluoro-3-(1-methyl-6-(2-(tetrahydro-2H-pyran-4-yl)morpholino)-1H-pyrazolo[4,3-c]pyridin-3-yl)-5-(trifluoromethyl)phenol]"
6,< 100 nM,"Cn1nc(-c2cc(C(F)(F)F)c(F)c(O)c2F)c2cnc(N3CCN(S(C)(=O)=O)C4(CCC4)C3)cc21 [Compound 9.134, 2,6-Difluoro-3-(1-methyl-6-(5-(methylsulfonyl)-5,8-diazaspiro[3.5]nonan-8-yl)-1H-pyrazolo[4,3-c]pyridin-3-yl)-5-(trifluoromethyl)phenol]"
7,< 100 nM,"Cn1nc(-c2cc(C(F)(F)F)c(F)c(O)c2F)c2cnc(N3CCO[C@@H](c4ccccc4)C3)cc21 [Compound 9.135, (S)-2,6-Difluoro-3-(1-methyl-6-(2-phenylmorpholino)-1H-pyrazolo[4,3-c]pyridin-3-yl)-5-(trifluoromethyl)phenol]"
8,< 100 nM,"CN(c1ncc2c(-c3cc(C(F)(F)F)c(F)c(O)c3F)nn(C)c2c1F)C1CCOCC1 [Compound 9.136, 2,6-Difluoro-3-(7-fluoro-1-methyl-6-(methyl(tetrahydro-2H-pyran-4-yl)amino)-1H-pyrazolo[4,3-c]pyridin-3-yl)-5-(trifluoromethyl)phenol]"
9,100 to 1000 nM,"Cc1cc(N(C)C2CCOCC2)cc2c1c(-c1cc(C(F)(F)F)c(F)c(O)c1F)nn2C [Compound 9.137, 3-(1,4-Dimethyl-6-(methyl(tetrahydro-2H-pyran-4-yl)amino)-1H-indazol-3-yl)-2,6-difluoro-5-(trifluoromethyl)phenol]"
10,< 100 nM,"Cn1nc(-c2cc(C(F)(F)F)c(F)c(O)c2F)c2nnc(N3CCOCC34CC4)cc21 [Compound 9.138, 2,6-Difluoro-3-(1-methyl-6-(7-oxa-4-azaspiro[2.5]octan-4-yl)-1H-pyrazolo[4,3-c]pyridazin-3-yl)-5-(trifluoromethyl)phenol]"
11,100 to 1000 nM,"CS(=O)(=O)N1CCN(c2ncc3c(-c4cc(O)c(F)c(C(F)(F)F)c4)n[nH]c3n2)CC1 [Compound 10, 2-Fluoro-5-(6-(4-(methylsulfonyl)piperazin-1-yl)-1H-pyrazolo[3,4-d]pyrimidin-3-yl)-3-(trifluoromethyl)phenol]"
12,100 to 1000 nM,"Oc1cc(-c2n[nH]c3nc(N4CC5(CCOCC5)C4)ncc23)cc(C(F)(F)F)c1F [Compound 10.01, 5-(6-(7-Oxa-2-azaspiro[3.5]nonan-2-yl)-1H-pyrazolo[3,4-d]pyrimidin-3-yl)-2-fluoro-3-(trifluoromethyl)phenol]"
13,< 100 nM,"CC1(C#N)CN(c2ncc3c(-c4cc(O)c(F)c(C(F)(F)F)c4)n[nH]c3n2)C1 [Compound 10.02, 1-(3-(4-Fluoro-3-hydroxy-5-(trifluoromethyl)phenyl)-1H-pyrazolo[3,4-d]pyrimidin-6-yl)-3-methylazetidine-3-carbonitrile]"
14,100 to 1000 nM,"CS(=O)(=O)N1CCN(c2ccc3c(-c4cc(O)c(F)c(C(F)(F)F)c4)n[nH]c3n2)CC1 [Compound 10.03, 2-Fluoro-5-(6-(4-(methylsulfonyl)piperazin-1-yl)-1H-pyrazolo[3,4-b]pyridin-3-yl)-3-(trifluoromethyl)phenol]"
15,100 to 1000 nM,"CS(=O)(=O)N1CCN(c2cnc3c(-c4cc(O)c(F)c(C(F)(F)F)c4)n[nH]c3n2)CC1 [Compound 10.04, 2-Fluoro-5-(6-(4-(methylsulfonyl)piperazin-1-yl)-1H-pyrazolo[3,4-b]pyrazin-3-yl)-3-(trifluoromethyl)phenol]"
16,< 100 nM,"CS(=O)(=O)N1CCN(c2cnc3c(-c4cc(O)c(F)c(C(F)(F)F)c4)nn(C4CCCCO4)c3n2)CC1 (centres unmarked) [Compound 10.05, 2-Fluoro-5-(6-(4-(methylsulfonyl)piperazin-1-yl)-1-(tetrahydro-2H-pyran-2-yl)-1H-pyrazolo[3,4-b]pyrazin-3-yl)-3-(trifluoromethyl)phenol]"
17,100 to 1000 nM,"Oc1cc(-c2n[nH]c3nc(N4CC5(CCOCC5)C4)cnc23)cc(C(F)(F)F)c1F [Compound 10.06, 5-(6-(7-Oxa-2-azaspiro[3.5]nonan-2-yl)-1H-pyrazolo[3,4-b]pyrazin-3-yl)-2-fluoro-3-(trifluoromethyl)phenol]"
18,1000 to 30000 nM,"CS(=O)(=O)N1CCN(c2ccc3c(-c4cc(C(F)(F)F)cc(O)c4F)n[nH]c3c2)CC1 [Compound 11, 2-Fluoro-3-(6-(4-(methylsulfonyl)piperazin-1-yl)-1H-indazol-3-yl)-5-(trifluoromethyl)phenol]"
19,100 to 1000 nM,"CS(=O)(=O)N1CCN(c2cc3[nH]nc(-c4cc(C(F)(F)F)cc(O)c4F)c3cn2)CC1 [Compound 11.02, 2-Fluoro-3-(6-(4-(methylsulfonyl)piperazin-1-yl)-1H-pyrazolo[4,3-c]pyridin-3-yl)-5-(trifluoromethyl)phenol]"
20,< 100 nM,"Oc1c(F)c(-c2n[nH]c3cc(N4CCOCC45CC5)ncc23)cc(C(F)(F)F)c1F [Compound 11.03, 3-(6-(7-Oxa-4-azaspiro[2.5]octan-4-yl)-1H-pyrazolo[4,3-c]pyridin-3-yl)-2,6-difluoro-5-(trifluoromethyl)phenol]"
21,< 100 nM,"CN(c1cc2[nH]nc(-c3cc(C(F)(F)F)c(F)c(O)c3F)c2cn1)C1CCOCC1 [Compound 11.04, 2,6-Difluoro-3-(6-(methyl(tetrahydro-2H-pyran-4-yl)amino)-1H-pyrazolo[4,3-c]pyridin-3-yl)-5-(trifluoromethyl)phenol]"
22,100 to 1000 nM,"Cn1nc(-c2cc(C(F)(F)F)c(F)c(O)c2F)c2ncc(N3CCN(S(C)(=O)=O)CC3)nc21 [Compound 12, 2,6-Difluoro-3-(1-methyl-6-(4-(methylsulfonyl)piperazin-1-yl)-1H-pyrazolo[3,4-b]pyrazin-3-yl)-5-(trifluoromethyl)phenol]"
23,< 100 nM,"Cn1nc(-c2cc(C(F)(F)F)c(F)c(O)c2F)c2cnc(N3CCN(S(C)(=O)=O)CC3)nc21 [Compound 12.01, 2,6-Difluoro-3-(1-methyl-6-(4-(methylsulfonyl)piperazin-1-yl)-1H-pyrazolo[3,4-d]pyrimidin-3-yl)-5-(trifluoromethyl)phenol]"
24,< 100 nM,"Cn1nc(-c2cc(C(F)(F)F)c(F)c(O)c2F)c2ccc(N3CCN(S(C)(=O)=O)CC3)nc21 [Compound 12.02, 2,6-Difluoro-3-(1-methyl-6-(4-(methylsulfonyl)piperazin-1-yl)-1H-pyrazolo[3,4-b]pyridin-3-yl)-5-(trifluoromethyl)phenol]"
25,< 100 nM,"Cn1nc(-c2cc(C(F)(F)F)c(F)c(O)c2F)c2cnc(N3CCOCC34CC4)nc21 [Compound 12.03, 2,6-Difluoro-3-(1-methyl-6-(7-oxa-4-azaspiro[2.5]octan-4-yl)-1H-pyrazolo[3,4-d]pyrimidin-3-yl)-5-(trifluoromethyl)phenol]"

# Same assay, conditions: at 10 uM compound; read-out: HSD17β13 % inhibition at 10 uM
row,inhibition at 10 µM,Structure (SMILES)
1,25%,"Cn1nc(-c2cc(C(F)(F)F)c(F)c(O)c2F)c2ccc(NC3COC3)nc21 [Compound 9.139, 2,6-Difluoro-3-(1-methyl-6-(oxetan-3-ylamino)-1H-pyrazolo[3,4-b]pyridin-3-yl)-5-(trifluoromethyl)phenol]"
2,35%,"Cn1nc(-c2cc(C(F)(F)F)c(F)c(O)c2F)c2cnc(N3CCCC34COC4)cc21 [Compound 9.140, 2,6-Difluoro-3-(1-methyl-6-(2-oxa-5-azaspiro[3.4]octan-5-yl)-1H-pyrazolo[4,3-c]pyridin-3-yl)-5-(trifluoromethyl)phenol]"
3,20%,"CN(c1cc2c(nn1)c(-c1cc(C(F)(F)F)c(F)c(O)c1O)nn2C)C1CCOCC1 [Compound 9.141, 3-Fluoro-6-(1-methyl-6-(methyl(tetrahydro-2H-pyran-4-yl)amino)-1H-pyrazolo[4,3-c]pyridazin-3-yl)-4-(trifluoromethyl)benzene-1,2-diol]"

# Same assay, conditions: at 30 uM compound; read-out: HSD17β13 % inhibition at 30 uM
row,inhibition at 30 µM,Structure (SMILES)
1,41%,"CS(=O)(=O)N1CCN(c2ccc3c(-c4ccc(F)c(O)c4F)n[nH]c3c2)CC1 [Compound 11.01, 2,6-Difluoro-3-(6-(4-(methylsulfonyl)piperazin-1-yl)-1H-indazol-3-yl)phenol]"
